From paper PMC6310865 (Proceedings of the National Academy of Sciences of the …, 2018)
Where two headings read alike, the source gives them in different places. Ends that are not written are not given here.

Columns and labels:
[1] = biological target: DQ0602 (HLA DQB1*06:02/DQA1*01:02 heterodimer) (Homo sapiens, UniProt P01909+P01920, A157G/A45G/C70R/E118A/E183D/E77G/F83G/G63E/H151Q/H199R/H252R/H253Q/I129T/I235V/I88M/INS77G/K197Q/L117V/L119F/L178F/L71W/L74F/L85Q/L91A/L98M/N214S/P87R/Q116E/Q76K/R102G/R240Q/R75S/R78G/S102Y/S185I/S41F/S97I/T121G/T122I/T172A/T86R/V229M/V68A/V73E/Y34C/Y41F/Y58L); assay type: binding; settings: in words; Dataset S1
CD4+ T cells = assay type: cell-based, human
[2] = 13 post-Pandemrix cases versus 10 post-Pandemrix controls

Substance | DQ0602 binding affinity of amidated versus nonamidated HCRT peptide [1] | Tetramer-positive CD4+ T cells in T1N cases versus DQ0602 controls (CD4+ T cells; 7 recent onset cases versus 21 controls) | Tetramer-positive CD4+ T cells in T1N cases versus DQ0602 controls (CD4+ T cells; [2]) | Tetramer-positive CD4+ T cells in T1N cases versus DQ0602 controls (CD4+ T cells; all cases versus controls, […]) | Tetramer reactivity (frequency of specific CD4+ T cells) in primary screening (CD4+ T cells)
HCRT54–66-NH2: C-terminal amidated HCRT54–66, as in secreted, mature hypocretin-1 (HGAGNHAAGILTL-NH2) | higher affinity | higher reactivity | marginally higher values | significantly higher percentage | 
HCRT86–97-NH2: C-terminal amidated HCRT86–97, as in secreted, mature hypocretin-2 (ASGNHAAGILTM-NH2; UniProt O43612 86-97, looked up, fragment) | higher affinity |  | significantly higher reactivity | marginally higher values | 
NP17–31: nucleoprotein epitope, PR8 specific (GERQNATEIRASVGK) |  |  |  |  | highest frequencies
NP261–275: nucleoprotein epitope shared between A/California/07/2009 and PR8 (RSALILRGSVAHKSC; UniProt P03466 261-275, looked up, fragment) |  |  |  |  | highest frequencies
